Reference: US11447529B2, “Microcin MccY, and preparation method and use thereof” (South China Agricultural University, priority 2021, dated 2022)

Legend:
Experiment in all cases: Bacteriostatic ring test on double-layer agar
Format in all cases: cell-based
[1] = test system: Salmonella Pullorum (strain name: CVCC1800); details: 50 μL filtrate (combination 25 uL + 25 uL), double-layer LB agar, 37° C., 18 h; FIG. 1
Procedure: (§1) Salmonella Pullorum (strain name: CVCC1800), Salmonella enteritidis (strain name: CVCC3377) and Salmonella typhimurium (strain name: ATCC14028) were respectively resuscitated in a LB agar plate (with the formula as shown in Table 4) (cultured in a 5% CO2 incubator at 37° C. for 16 h). Single colonies were picked and subjected to shaking culture until OD600=0.8. The bacterial solution was inoculated into a soft agar medium containing 5% LB (with the formula as shown in Table 5) at about 42° C. in a proportion of 1:1,000, and then spread onto a LB agar plate to form an upper and lower double-layer agar medium. 30 min later, after the soft agar was cooled and solidified, a mixed solution of 50 μL of the filtrate obtained in Example 1 (the Microcin MccY), 50 μL of the filtrate obtained in Example 2, 50 μL of the filtrate obtained in Example 3 (the Microcin MccJ25), 25 uL of the filtrate obtained in Example 1 (the Microcin MccY) and 25 uL of the filtrate obtained in Example 3 (the Microcin MccJ25) was taken and added into the upper and lower double-layer agar medium containing Salmonella Pullorum, Salmonella enteritidis and Salmonella typhimurium. The upper and lower double-layer agar medium was then placed into a 5% CO2 bacterial incubator at 37° C. for static culture for 18 h, and then observed for a bacteriostatic ring.

[2] = test system: Salmonella typhimurium (strain name: ATCC14028); details: 50 μL filtrate (combination 25 uL + 25 uL), double-layer LB agar, 37° C., 18 h; FIG. 1
Procedure: as §1

[3] = test system: Salmonella Infantis (strain name: CMCC50041); details: 50 μL filtrate (combination 25 uL + 25 uL), double-layer LB agar, 37° C., 18 h; FIG. 2
Procedure: (§2) Salmonella kentucky (strain name: BNCC239114), Salmonella Infantis (strain name: CMCC50041) and Salmonella london (strain name: CVCC2206) were respectively resuscitated in a LB agar plate (with the formula as shown in Table 4) (cultured in a 5% CO2 incubator at 37° C. for 16 h). Single colonies were picked and subjected to shaking culture until OD600=0.8. The bacterial solution was inoculated into a soft agar medium containing 5% LB (with the formula as shown in Table 5) at about 42° C. in a proportion of 1:1,000, and then spread onto a LB agar plate to form an upper and lower double-layer agar medium. 30 min later, after the soft agar was cooled and solidified, a mixed solution of 50 μL of the filtrate obtained in Example 1 (the Microcin MccY), 50 μL of the filtrate obtained in Example 2, 50 μL of the filtrate obtained in Example 3 (the Microcin MccJ25), 25 uL of the filtrate obtained in Example 1 (the Microcin MccY) and 25 uL of the filtrate obtained in Example 3 (the Microcin MccJ25) was taken and added into the upper and lower double-layer agar medium containing […]. The upper and lower double-layer agar medium was then placed into a 5% CO2 bacterial incubator at 37° C. for static culture for 18 h, and then observed for a bacteriostatic ring.

[4] = test system: Salmonella kentucky (strain name: BNCC239114); details: 50 μL filtrate (combination 25 uL + 25 uL), double-layer LB agar, 37° C., 18 h; FIG. 2
Procedure: as §2

[5] = test system: Salmonella london (strain name: CVCC2206); details: 50 μL filtrate (combination 25 uL + 25 uL), double-layer LB agar, 37° C., 18 h; FIG. 2
Procedure: as §2

[6] = test system: Shigella flexneri (strain name: CMCC51572); details: 50 μL filtrate, double-layer LB agar, 37° C., 18 h; FIG. 3
Procedure: (§3) Shigella flexneri (strain name: CMCC51572) and Shigella sonnei (strain name: CMCC51592) were respectively resuscitated in a LB agar plate (with the formula as shown in Table 4) (cultured in a 5% CO2 incubator at 37° C. for 16 h). Single colonies were picked and subjected to shaking culture until OD600=0.8. The bacterial solution was inoculated into a soft agar medium containing 5% LB (with the formula as shown in Table 5) at about 42° C. in a proportion of 1:1,000, and then spread onto a LB agar plate to form an upper and lower double-layer agar medium. 30 min later, after the soft agar was cooled and solidified, each 50 μL of the filtrate obtained in Example 1 (the Microcin MccY) and methanol were respectively taken and added into the upper and lower double-layer agar medium containing Shigella flexneri and Shigella sonnei (the control group was added with the same amount of the filtrate obtained in Example 2). The upper and lower double-layer agar medium was then placed into a 5% CO2 bacterial incubator at 37° C. for static culture for 18 h, and then observed for a bacteriostatic ring.

[7] = test system: Shigella sonnei (strain name: CMCC51592); details: 50 μL filtrate, double-layer LB agar, 37° C., 18 h; FIG. 3
Procedure: as §3

[8] = test system: Salmonella enteritidis (strain name: CVCC3377); details: 50 μL filtrate (combination 25 uL + 25 uL), double-layer LB agar, 37° C., 18 h; FIG. 1
Procedure: as §1

Substance | bacteriostatic effect (bacteriostatic ring) against Salmonella Pullorum [1] | bacteriostatic effect (bacteriostatic ring) against Salmonella typhimurium [2] | bacteriostatic effect (bacteriostatic ring) against Salmonella Infantis [3] | bacteriostatic effect (bacteriostatic ring) against Salmonella kentucky [4] | bacteriostatic effect (bacteriostatic ring) against Salmonella london [5] | bacteriostatic effect (bacteriostatic ring) against Shigella flexneri [6] | bacteriostatic effect (bacteriostatic ring) against Shigella sonnei [7] | bacteriostatic effect (bacteriostatic ring) against Salmonella enteritidis [8]
MccY: Microcin with amino acid sequence GGRGHIAEYFSGPITQVSFYG (SEQ ID NO.1); tested as filtrate expressed by pET-28a(+)-MccY-containing BL21(DE3) bacteria (Primer) | inhibitory effects | inhibitory effects | inhibitory effects | inhibitory effects | inhibitory effects | not sensitive | sensitive | 
MccJ25: Known Microcin MccJ25 (SEQ ID NO.10); tested as filtrate expressed by pET-28a(+)-MccJ25-containing BL21(DE3) bacteria (GGAGHVPEYFVGIGTPISFYG; Primer) [reference compound] |  |  | no inhibitory effect | no inhibitory effect | no inhibitory effect |  |  | inhibitory effect
